Laboratory results reported in patent US8022088B2, “Substituted bicyclic and tricyclic thrombin receptor antagonists” (Schering Corporation, priority 2006, dated 2011).

Target: T1, thrombin receptor (Homo sapiens, UniProt P25116)
T1 construct: tissue North Jersey Blood Center (East Orange, N.J.); host or cells: platelet membranes prepared from platelet concentrates
T1 sequence (P25116 22-425): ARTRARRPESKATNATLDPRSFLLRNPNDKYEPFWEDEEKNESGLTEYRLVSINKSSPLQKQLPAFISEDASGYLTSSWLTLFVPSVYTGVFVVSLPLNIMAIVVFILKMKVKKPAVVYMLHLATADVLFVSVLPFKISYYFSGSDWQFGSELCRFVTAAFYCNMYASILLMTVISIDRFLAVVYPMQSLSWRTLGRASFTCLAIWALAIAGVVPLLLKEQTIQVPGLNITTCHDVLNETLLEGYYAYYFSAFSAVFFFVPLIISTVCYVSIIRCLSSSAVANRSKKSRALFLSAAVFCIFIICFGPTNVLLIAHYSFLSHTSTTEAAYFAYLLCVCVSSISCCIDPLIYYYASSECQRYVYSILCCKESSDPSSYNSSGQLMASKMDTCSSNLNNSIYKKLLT
Assay: High throughput thrombin receptor radioligand binding assay ([3H]haTRAP, platelet membranes)
Details: [3H]haTRAP binding to platelet membranes
Procedure: A(pF-F)R(ChA)(hR)(I2—Y)—NH2 (1.03 mg) and 10% Pd/C (5.07 mg) were suspended in DMF (250 μl) and diisopropylethylamine (10 μl). The vessel was attached to the tritium line, frozen in liquid nitrogen and evacuated. Tritium gas (342 mCi) was then added to the flask, which was stirred at room temperature for 2 hours. At the completion of the reaction, the excess tritium was removed and the reacted peptide solution was diluted with DMF (0.5 ml) and filtered to remove the catalyst. The collected DMF solution of the crude peptide was diluted with water and freeze dried to remove the labile tritium. The solid peptide was redissolved in water and the freeze drying process repeated. The tritiated peptide ([^3H]haTRAP) was dissolved in 0.5 ml of 0.1% aqueous TFA and purified by HPLC using the following conditions: column, Vydac™ C18, 25 cm×9.4 mm I.D.; mobile phase, (A) 0.1% TFA in water, (B) 0.1% TFA in CH3CN; gradient, (A/B) from 100/0 to 40/60 over 30 min; flow rate, 5 ml/min; detection, UV at 215 nm. The radiochemical purity of [^3H]haTRAP was 99% as analyzed by HPLC. A batch of 14.9 mCi at a specific activity of 18.4 Ci/mmol was obtained.
Platelet membranes were prepared using a modification of the method of Natarajan et al. (Natarajan et al, Int. J. Peptide Protein Res. 45:145-151 (1995)) from 20 units of platelet concentrates obtained from the North Jersey Blood Center (East Orange, N.J.) within 48 hours of collection. All steps were carried out at 4° C. under approved biohazard safety conditions. Platelets were centrifuged at 100×g for 20 minutes at 4° C. to remove red cells. The supernatants were decanted and centrifuged at 3000×g for 15 minutes to pellet platelets. Platelets were re-suspended in 10 mM Tris-HCl, pH 7.5, 150 mM NaCl, 5 mM EDTA, to a total volume of 200 ml and centrifuged at 4400×g for 10 minutes. This step was repeated two additional times. Platelets were re-suspended in 5 mM Tris-HCl, pH 7.5, 5 mM EDITA to a final volume of approximately 30 ml and were homogenized with 20 strokes in a Dounce™ homogenizer. Membranes were pelleted at 41,000×g, re-suspended in 40-50 ml 20 mM Tris-HCl, pH 7.5, 1 mM EDTA, 0.1 mM dithiothreitol, and 10 ml aliquots were frozen in liquid N2 and stored at −80° C. To complete membrane preparation, aliquots were thawed, pooled, and homogenized with 5 strokes of a Dounce homogenizer. Membranes were pelleted and washed 3 times in 10 mM triethanolamine-HCl, pH 7.4, 5 mM EDTA, and re-suspended in 20-25 ml 50 mM Tris-HCl, pH 7.5, 10 mM MgCl2, 1 mM EGTA, and 1% DMSO. Aliquots of membranes were frozen in liquid N2 and stored at −80° C. Membranes were stable for at least 3 months. 20 units of platelet concentrates typically yielded 250 mg of membrane protein. Protein concentration was determined by a Lowry assay (Lowry et al., J. Biol. Chem., 193:265-275 (1951)).
Thrombin receptor antagonists were screened using a modification of the thrombin receptor radioligand binding assay of Ahn et al. (Ahn et al., Mol. Pharmacol, 51:350-356 (1997)). The assay was performed in 96 well Nunc plates (Cat. No. 269620) at a final assay volume of 200 μl. Platelet membranes and [^3H]haTRAP were diluted to 0.4 mg/ml and 22.2 nM, respectively, in binding buffer (50 mM Tris-HCl, pH 7.5, 10 mM MgCl2, 1 mM EGTA, 0.1% BSA). Stock solutions (10 mM in 100% DMSO) of test compounds were further diluted in 100% DMSO. Unless otherwise indicated, 10 μl of diluted compound solutions and 90 μl of radioligand (a final concentration of 10 nM in 5% DMSO) were added to each well, and the reaction was started by the addition of 100 μl of membranes (40 μg protein/well). […] Compounds were tested at three concentrations (0.1, 1 and 10 μM). The plates were covered and vortex-mixed gently on a Lab-Line™ Titer Plate Shaker for 1 hour at room temperature. Packard UniFilter™ GF/C filter plates were soaked for at least 1 hour in 0.1% polyethyleneimine. […]

Structure (SMILES)	IC50	Ki
C[C@@H]1[C@@H](C)[C@H](/C=C/c2ccc(-c3ccccc3C#N)cn2)C[C@@H]2OC(=O)C[C@@H]12 [Compound 1]	45 nM	–
O=C1C[C@H]2[C@@H]3CCCC[C@H]3[C@H](/C=C/c3ccc(-c4cc(Cl)ccc4Cl)cn3)C[C@H]2O1 [Compound 4]	20 nM	13 nM
C[C@@H]1[C@@H](C)[C@H](/C=C/c2ccc(-c3ccccc3C#N)cn2)C[C@H]2OC(=O)C[C@@H]12 [Compound 2]	16 nM	11 nM

Now from value to compound:

IC50	Ki	Structure (SMILES)
6.7 nM	4.3 nM	N#Cc1cccc(-c2ccc(/C=C/[C@@H]3C[C@H]4OC(=O)C[C@H]4[C@@H]4CCCC[C@H]43)nc2)c1 [Compound 5]
4.8 nM	3.1 nM	O=C1C[C@H]2[C@@H]3CCCC[C@H]3[C@H](/C=C/c3ccc(-c4cccc(F)c4)cn3)C[C@H]2O1 [Compound 3]
